Assay in data set [1]: not given
The source holds these as a separate data set.

For data set [2], the target named is T1, human orexin type 2 receptor (hOX2R) (Homo sapiens, UniProt O43614).
T1 construct: expressed in transfected cells
T1 sequence (O43614 1-444): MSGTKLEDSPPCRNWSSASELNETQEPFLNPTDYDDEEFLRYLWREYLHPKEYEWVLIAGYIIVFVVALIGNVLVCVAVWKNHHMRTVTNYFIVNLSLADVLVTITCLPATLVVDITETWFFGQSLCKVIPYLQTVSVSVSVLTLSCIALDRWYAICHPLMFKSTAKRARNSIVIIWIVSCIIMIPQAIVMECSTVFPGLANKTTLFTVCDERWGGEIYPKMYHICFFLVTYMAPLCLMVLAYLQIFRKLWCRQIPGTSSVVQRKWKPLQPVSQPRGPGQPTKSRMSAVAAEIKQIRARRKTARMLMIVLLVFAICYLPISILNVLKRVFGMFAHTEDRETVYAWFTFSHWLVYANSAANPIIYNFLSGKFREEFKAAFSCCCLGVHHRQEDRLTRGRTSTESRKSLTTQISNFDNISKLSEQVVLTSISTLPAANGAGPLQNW
The data set can be described thus: Orexin type 2 receptor agonist activity, intracellular Ca2+ (FLIPR TETRA). It is filed as cell-based. The following applies: CHO cells expressing hOX2R; Ca2+ fluorescence area; read-out: hOx2 pEC50 (converted). The procedure: Stable cell line generation. Obtainment of cells stably expressing either human orexin type 2 or human orexin type 1 receptor; to obtain a stable cell line the Orexin receptor cDNA was inserted into pcDNA3.1(+) plasmid vector and clones identified by G418 drug resistance selection. […] A single clone for OX2R-CHO and OX1R-CHO were grown in bulk and frozen to generate a cell bank for routine screening.
Measurement of orexin type 2 receptor agonist activity. Chinese hamster ovary (CHO) cells expressing human orexin type 2 receptor (hOX2R) or human orexin type 1 receptor (hOX1R) were seeded in each well of 384 well black clear bottom plates (BD Flacon) at 10,000 cells per well and cultured for 24 hr in an Ham's F12 (Gibco) medium containing 10% fetal calf serum (Sigma Aldrich) under the conditions of 37° C., 5% CO2. After removal of the medium, 50 μl of assay buffer 1 (0.1% bovine serum albumin (Sigma Aldrich), 20 mM HEPES (Molecular Dimensions), […] probenecid (Sigma Aldrich), 1× Calcium 5 dye (Molecular Devices) in Hank's balanced salt solution (Invitrogen)) was added, and the cells were incubated for 60 min under the conditions of 37° C., 5% CO2. A test compound was dissolved in dimethyl sulfoxide (Sigma Aldrich) to 10 mM, and then diluted with assay buffer 2 (20 mM HEPES, Hank's balanced salt solution, 0.1% bovine serum albumin). For the reaction, a test compound solution (10 μl) was added using Fluorescent Imaging Plate Reader TETRA (FLIPR TETRA: manufactured by Molecular Devices), a fluorescence value (excitation wavelength 488 nm, measurement wavelength 570 nm) of each well was measured every one second for 2 min, and the agonist activity was determined using the area of the fluorescence value as an indicator of intracellular Ca^2+ concentration. The agonist activity of the test compound was calculated assuming that the fluorescence value of the well added with only the dilution buffer was 0% and the fluorescence value of the well added with 10 nM human orexin A (Tocris) buffer was 100%. As used herein, Emax indicates the value at 10 μM concentration when orexin A is converted to a full agonist (maximum value of agonist activity: 100%).

[3] abbreviates: amide bond, 13-membered ring, HATU/DIEA, DMF, 10.0 mM, 25.0 °C.

Read-outs that look alike come from different tables or passages of the source.

Molecule “N-(5-oxo-4(2,1)-piperidina-1(1,2),2(1,3)-dibenzenacyclononaphane-4^3-yl)-methanesulfonamide_cis racemic” showed a ring closure, isolated yield (amide bond, 13-membered ring, HATU/DIEA, DMF, 9.9 mM, 25.0 °C) of 27%.

In turn, “N-(5-oxo-12-phenyl-2,3,5,6,7,8,9,10,16,16a-decahydro-1H-benzo[b]pyrrolo[2,1-e][1]oxa[6]azacyclododecin-1-yl)ethanesulfonamide_cis racemic” registered a ring closure, yield after HPLC in data set [1] (ether bond, 12-membered ring, K2CO3, DMF, 10.7 mM, 80.0 °C) of 10%.

Consider “N-(5-oxo-6-aza-4(2,1)-piperidina-1(1,2),2(1.3)-dibenzenacyclo-undecaphane-4^3-yl)methanesulfonamide_cis racemic”, for which, under “crosslinker bond, 15-membered ring, CDI/DIEA, DMF, 10.0 mM, 70.0 °C”, the ring closure, isolated yield came to 23%.

Turning to “N-(5-oxo-12-oxa-6-aza-4(2,1)-pyrrolidina-1(1,2),2(1,3)-dibenzenacyclo-dodeca phane-43-yl)ethanesulfonamide_cis racemic”, under “crosslinker bond, 16-membered ring, CDI/DIEA, THF/DMF 4:1, 10.0 mM, 70.0 °C”, the ring closure, isolated yield is 38%.

Consider “N-(5-oxo-6,9-dioxa-4(2,1)-pyrrolidina-1(1,2),2(1.3)-dibenzenacyclo-nonaphane-4^3-yl)ethanesulfonamide_cis racemic”, for which, in data set [1] (crosslinker bond, 13-membered ring, CDI/DIEA, DMF, 10.0 mM, 80.0 °C), the ring closure, yield after HPLC was 22%.

In turn, “N-(1^3,1^5-difluoro-5-oxo-6-aza-4(2,1)-pyrrolidina-1-(1,2),2-(1,3)-dibenzena-cycloundecaphane-4^3-yl)ethanesulfonamide_cis racemic” registered a ring closure, yield after HPLC in data set [1] (crosslinker bond, 15-membered ring, CDI/DIEA, DMF, 52.5 mM, 25.0 °C) of 11%.

“N-(6-methyl-5-oxo-9-oxa-6-aza-4(2,1)-piperidina-1(1,2),2(1,3)-dibenzena-cyclo-nonaphane-4^3-yl)methanesulfonamide_cis racemic” returned a ring closure, yield after HPLC in data set [1] (crosslinker bond, 13-membered ring, triphosgene/DIEA, DCM, 8.5 mM, 25.0 °C) of 3%.

In turn, “N-(5-oxo-9-oxa-4(2,1)-piperidina-1(1,2),2(1,3)-dibenzenacyclononaphane-4^3-yl)methanesulfonamide_cis racemic” displayed a ring closure, isolated yield under setting [3] of 38%.

`O=C1CCCN2C(=O)CCOc3ccccc3-c3cc(ccc3F)CC12` (stereo not drawn) yielded a ring closure, isolated yield (from O=C(O)CCOc1ccccc1-c1cc(CC2NCCCC2=O)ccc1F, amide bond, 12-membered ring, HATU/DIEA, DMF, 0.54 mM, 25.0 °C, 12.0 h) of 28.4%.

As for “N-(5-oxo-9-oxa-4(2,1)-pyrrolidina-1(1.2),2(1,3)-dibenzenacyclo-nonaphane-4^3-yl)ethanesulfonamide_cis racemic”, under setting [3], the ring closure, isolated yield came to 49%.

“N-(1^3,1^5-difluoro-5-oxo-4(2,1)-pyrrolidina-1(1,2),2(1,3)-dibenzenacyclo-undecaphane-4^3-yl)ethanesulfonamide_cis racemic”: the ring closure, yield after HPLC in data set [1] (amide bond, 15-membered ring, HATU/DIEA, DCM, 11.7 mM, 25.0 °C) came out at 8%.

“N-(5-oxo-9-oxa-6-aza-4(2,1)-piperidina-1(1,2),2(1,3)-dibenzenacyclo-nonaphane-4^3-yl)methanesulfonamide_cis racemic” gave a ring closure, isolated yield (crosslinker bond, 13-membered ring, CDI/DIEA, DMF, 97.5 mM, 70.0 °C) of 23%.

Where the note is “from O=C(O)CCOc1cccc(F)c1-c1cccc(CC2NCCCC2=O)c1, amide bond, 12-membered ring, HATU/DIEA, DMF, 0.49 mM, 25.0 °C, 12.0 h”, `O=C1CCCN2C(=O)CCOc3cccc(F)c3-c3cccc(c3)CC12` (stereo not drawn) showed a ring closure, isolated yield of 27.7%.

Molecule “N-((4^2S,4^3S)-5-oxo-4(2,1)-piperidina-1(1,2),2(1,3)-dibenzenacyclooctaphane-4^3-yl)methanesulfonamide” registered a ring closure, isolated yield (amide bond, 12-membered ring, HATU/DIEA, DMF, 6.5 mM) of 6%.

For `CN(C)S(=O)(=O)N[C@@H]1CCCN2C(=O)CCOc3ccccc3-c3cccc(c3)C[C@H]12` [Compound A1-75], the EC50 in data set [2] is 10 to 100 nM.

As for `CCS(=O)(=O)NC1CCN2C(=O)CCC/C=C/c3ccccc3-c3cccc(c3)CC12` (mixture of isomers) [Compound A1-36, (E/Z)—N-(5-oxo-4(2,1)-pyrrolidina-1(1,2),2(1,3)-dibenzenacyclodecaphan-9-en-4^3-yl)ethanesulfonamide], the EC50 in data set [2] was 100 to 1000 nM.

Regarding `CN(C)S(=O)(=O)N[C@H]1CCCN2C(=O)OCCOc3ccccc3-c3cccc(c3)C[C@@H]12` [Compound A1-77], the EC50 in data set [2] was 10 to 100 nM.

In the case of `CN1CCOc2ccccc2-c2cccc(c2)C[C@H]2[C@@H](NS(=O)(=O)C(F)F)C3(CC3)CN2C1=O` [Compound A1-95, 1,1-difluoro-N-((2′S,3′S)-6′-methyl-5′-oxospiro[cyclopropane-1,4′-9-oxa-6-aza-4(2,1)-pyrrolidina-1(1,2),2(1,3)-dibenzenacyclononaphan]-3′-yl)methanesulfonamide], in data set [2], the EC50 was 1 to 10 nM.

As to `CCS(=O)(=O)NC1CCN2C(=O)NCC/C=C/Cc3ccccc3-c3cccc(c3)CC12` (racemic) [Compound A1-52, (E/Z)—N-(5-oxo-6-aza-4(2,1)-pyrrolidina-1(1,2),2(1.3)-dibenzenacyclo-undecaphan-9-en-43-yl)ethanesulfonamide], in data set [2], the EC50 is 1 to 10 nM.

For `CCS(=O)(=O)NC1CCN2C(=O)OCCCCCc3ccccc3-c3cccc(c3)CC12` (racemic) [Compound A1-54, N-(5-oxo-6-oxa-4(2,1)-pyrrolidina-1(1,2),2(1.3)-dibenzenacyclo-undecaphane-4^3-yl)ethanesulfonamide], the EC50 in data set [2] is 10 to 100 nM.

For the molecule `CS(=O)(=O)N[C@H]1CCN2C(=O)C(F)(F)CCCCCc3ccccc3-c3cccc(c3)C[C@@H]12` [Compound A1-66], in data set [2], the EC50 is 10 to 100 nM.

As to `CCS(=O)(=O)NC1CCN2C(=O)CC/C=C\c3ccccc3-c3cccc(c3)CC12` (racemic) [Compound A1-26, (E/Z)—N-(5-oxo-4(2,1)-pyrrolidina-1(1,2),2(1,3)-dibenzenacyclononaphan-8-en-4^3-yl)ethanesulfonamide], the EC50 in data set [2] is 100 to 1000 nM.

As for `COc1c2cccc1-c1ccccc1OCCNC(=O)N1C[C@H](F)[C@H](NS(=O)(=O)CF)[C@@H]1C2` [Compound A1-88], the EC50 in data set [2] was 10 to 100 nM.

“N-(5-oxo-4(2,1)-piperidina-1(1,2),2(1,3)-dibenzenacycloundecaphane-4^3-yl)methanesulfonamide_cis racemic”: the ring closure, isolated yield (amide bond, 15-membered ring, HATU/DIEA, DMF, 8.9 mM, 25.0 °C) turned out to be 67%.

Consider `CCS(=O)(=O)NC1CCN2C(=O)NCCCCc3ccccc3-c3cccc(c3)CC12` (racemic) [Compound A1-49, N-(5-oxo-6-aza-4(2,1)-pyrrolidina-1(1,2),2(1,3)-dibenzenacyclodecaphane-4^3-yl)ethanesulfonamide], for which the EC50 in data set [2] is 10 to 100 nM.

Turning to `CCS(=O)(=O)NC1CCN2C(=O)CCCCCc3ccccc3-c3cccc(c3)CC12` (racemic) [Compound A1-48, N-(5-oxo-4(2,1)-pyrrolidina-1(1,2),2(1,3)-dibenzenacyclodecaphane-4^3-yl)ethanesulfonamide], in data set [2], the EC50 is 10 to 100 nM.

For `O=C1CCOc2ccccc2-c2cccc(c2F)C[C@H]2[C@@H](NS(=O)(=O)CF)CCCN12` [Compound A1-102], in data set [2], the EC50 is 10 to 100 nM.

`O=C1CCOc2ccccc2-c2cccc(c2F)C[C@H]2[C@@H](NS(=O)(=O)C(F)F)CCCN12` [Compound A1-98]: the EC50 in data set [2] is 0.1 to 1 nM.

Consider `CN1CCOc2ccccc2-c2cccc(c2)C[C@H]2[C@@H](NS(C)(=O)=O)CCN2C1=O` [Compound A1-61], for which, in data set [2], the EC50 was 10 to 100 nM.

With `CCS(=O)(=O)NC1CCN2C(=O)N(C)CCCCCc3ccccc3-c3cccc(c3)CC12` (racemic) [Compound A1-18, N-(6-methyl-5-oxo-6-aza-4(2,1)-pyrrolidina-1(1,2),2(1,3)-dibenzenacyclo-undecaphane-43-yl)ethanesulfonamide], the EC50 in data set [2] was 1 to 10 nM.

For the origin of these results see US20230331720A1, “MEDIUM- OR MACRO-CYCLIC BENZYL-SUBSTITUTED HETEROCYCLE DERIVATIVES AND THEIR USES AS OREXIN-2 RECEPTOR AGONISTS” (Orexia Therapeutics Limited, priority 2020, published 2023).
